The source made the active and inactive calls. How the calls were made is not given here.
What follows are compounds tested against Vacuolar aminopeptidase 1 (Saccharomyces cerevisiae (strain ATCC 204508 / S288c)) (UniProt P14904) (assay: LAP4-GFP modulation potency, analog set, SAR follow-up, cell-based, KU SAR set, flow cytometry (AID 488795)). Conditions: S. cerevisiae Lap4-GFP reporter, flow cytometry MCF.
Vacuolar aminopeptidase 1 (Saccharomyces cerevisiae (strain ATCC 204508 / S288c)), sequence (P14904 whole entry, looked up): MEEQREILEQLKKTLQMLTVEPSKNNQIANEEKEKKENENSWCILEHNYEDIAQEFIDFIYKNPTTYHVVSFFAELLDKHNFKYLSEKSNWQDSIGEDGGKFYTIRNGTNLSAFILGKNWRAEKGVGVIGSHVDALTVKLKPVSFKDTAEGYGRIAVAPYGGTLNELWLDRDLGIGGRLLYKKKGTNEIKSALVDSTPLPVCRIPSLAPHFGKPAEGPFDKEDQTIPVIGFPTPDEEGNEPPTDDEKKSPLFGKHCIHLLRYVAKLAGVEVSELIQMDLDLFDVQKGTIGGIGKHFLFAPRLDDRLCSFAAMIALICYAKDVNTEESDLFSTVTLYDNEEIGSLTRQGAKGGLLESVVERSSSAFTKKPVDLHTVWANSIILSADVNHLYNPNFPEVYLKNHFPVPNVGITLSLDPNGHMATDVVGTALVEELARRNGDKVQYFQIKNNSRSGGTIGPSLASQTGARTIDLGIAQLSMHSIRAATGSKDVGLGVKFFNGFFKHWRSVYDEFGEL

| SMILES | EC50 |
| --- | --- |
| CCN(CC)C(=O)Oc1ccnc2cc(Cl)ccc12 | inactive |
| CCSc1nnc(NC(=O)c2ccccn2)s1 | inactive |
| CCOC(=O)CS(=O)(=O)c1nc(-c2ccccc2)cc(C(F)(F)F)n1 | 6.32 µM |
| O=C(CCc1ccccc1)NNC(=S)NC(=O)c1ccccc1 | 3.42 µM |
| O=C(OCn1ncc(Br)c(Br)c1=O)c1c(F)cccc1F | 4.33 µM |
| CC(C)(C)C(=O)C(Cl)C(=O)Nc1ccccc1 (centres undefined) | 6.93 µM |
| Nc1cc(Oc2cccc(Cl)c2)nc(NCc2ccccc2)n1 | inactive |
| O=C(OCn1ncc(Br)c(Br)c1=O)c1ccc(F)cc1 | 4.01 µM |
| COc1ccc([N+](=O)[O-])c(S(=O)(=O)c2ccccc2)n1 | 11.9 µM |
| O=[N+]([O-])c1ccc(S(=O)(=O)c2cccc(C(F)(F)F)c2)nc1 | 1.94 µM |
| COc1ccc([N+](=O)[O-])c(S(=O)(=O)c2ccc(Cl)cc2)n1 | 3.53 µM |
| CCOC(=O)CCS(=O)(=O)c1nc(-c2ccccc2)cc(C(F)(F)F)n1 | 27.6 µM |
| COC(=O)CCS(=O)(=O)c1nc(-c2ccccc2)cc(C(F)(F)F)n1 | 19.9 µM |
| Clc1ccc(N=c2ssnc2Cl)cc1 | 3.73 µM |
| CNc1nc(N)c([N+](=O)[O-])c(Nc2cccc(F)c2)n1 | 8.37 µM |
| C/C(=N\NC(=O)c1cccc(Br)c1)c1ccccn1 | inactive |
| Cc1ccc2nc(Cl)c3nnnn3c2c1 | 4.47 µM |
| CCCOc1ccc(C(=O)NNC(=S)NC(=O)CC)cc1 | 4.38 µM |
| CCC(C)Nc1nc(N)c([N+](=O)[O-])c(Nc2cccc(F)c2)n1 (centres undefined) | inactive |

Continued, values first:

| EC50 | SMILES |
| --- | --- |
| 1.22 µM | O=c1cc(CSc2ccc(Cl)cc2)nc(-c2ccccn2)[nH]1 |
| inactive | Cc1ccc(S(=O)(=O)c2ncccc2[N+](=O)[O-])cc1 |
| inactive | O=C(Nc1nc(-c2ccccn2)cs1)C1COc2ccccc2O1 (centres undefined) |
| inactive | C/C(=N\NC(=O)c1ccc(C(C)(C)C)cc1)c1ccccn1 |
| 12.5 µM | O=S(=O)(CCN(CCS(=O)(=O)C(F)(F)F)CC1CCCO1)C(F)(F)F (centres undefined) |
| 14 µM | O=[N+]([O-])c1cc(S(=O)(=O)C(F)(F)F)ccc1Sc1nc2ccccc2s1 |
| 4.05 µM | CCCCC(=O)NNC(=S)NC(=O)c1ccc(C)cc1 |
| inactive | Oc1c(I)cc(I)c2cccnc12 |
| inactive | CN1CCN(C(=O)c2cc(COc3c(F)cccc3F)on2)CC1c1ccccc1 (centres undefined) |
| 6.57 µM | O=[N+]([O-])c1ccc(O)c2ncccc12 |
| inactive | CCOC(=O)CSC1=NC(=O)/C(=C\c2ccc(Cl)cc2)S1 |
| inactive | Nc1cc(Nc2cccc(F)c2)nc(NCc2ccccc2)n1 |
| inactive | CSC1=NS(=O)(=O)c2c(C)nn(C)c2S1 |
| 4.36 µM | O=c1/c(=C/c2cccc3ccccc23)sc2ncnn12 |
| 2.55 µM | Cc1ccc(S(=O)(=O)c2ccc([N+](=O)[O-])cn2)cc1 |
